{"source": "patent US20110166066A1", "about": "“CATESTATIN (CST) AND ITS VARIANTS FOR TREATMENT OF CARDIOVASCULAR AND METABOLIC DISORDERS” (priority 2008, published 2011)", "key": {"[1]": {"tested_on": "Langendorff perfused rat heart", "assay": "ET-1 stimulated Langendorff heart preparations", "protocol": "ET-1 stimulated preparations—Hearts, stabilized for 20 min with KHs, were perfused for 10 min with ET-1 (1 nM) and then washed-out with KHs. After returning to control conditions, each heart was perfused with KHs containing a single concentration of either WT-Cts (33 nM), P370L-Cts (110 nM) or G364S-Cts (200 nM) plus 1 nM ET-1 for a further 10 min."}, "[2]": {"tested_on": "CgA null mice", "conditions": "pre-treatment; cited from earlier work"}, "[3]": {"tested_on": "WT, CgA-KO and HFD fed insulin resistant mice", "assay": "Blood glucose / glucose tolerance tests", "type": "in vivo", "text": "Adult WT (C57BL/6) and CgA-KO mice with mixed genetic background (129svJ×C57BL/6) were used in this study. Both WT and KO mice were generated from the original founder carrying mixed genotype (50% 129svJ: 50% C57BL/6) and were maintained by brother/sister mating. Hypertensive CGA-KO mice will serve as a model for hyper insulin sensitivity. WT mice were fed 60% high fat diet (HFD) for 20 weeks. Body weight and blood glucose levels were monitored and glucose and insulin tolerance testa were performed to determine status of insulin resistance. After 20 weeks of HFD feeding mice were injected IP with catestatin (40 μg/gm body weight) twice daily for 7 days. On the 8th day, 12 hours fasted mice were subjected to glucose tolerance tests to determine their insulin sensitivity. Tissues of WT and CgA-KO mice are analyzed AMPK and eNOS signalling by immunoblotting."}, "[4]": {"tested_on": "GSK-3β Ser9", "assay": "Immunoblot of phosphorylated GSK-3β in WT-CST perfused hearts", "set-up": "species or system rat", "conditions": "110 nM", "protocol": "(§1) Cardiac signaling—Hearts were perfused with or without 110 nM WT-Cts as before. At the end of experiment hearts were snap frozen under liquid nitrogen and homogenized with 1 ml of ice cold 0.2 M sucrose, Tris maleate (pH 7.0) buffer supplemented with 2 mM EDTA, pH 8.0, 1 mM sodium orthovanadate, 10 mM sodium pyrophosphate, 1 mM phenylmethylsulfonyl fluoride, 10 μg/ml leupeptin, 10 μg/ml aprotinin and 0.1 mM 3-isobutyl-1-methylxanthine. SR membrane fractions were isolated from cytosolic proteins as described before (27). Protein content was determined by Bradford assay (BIO-RAD) and 100 μg of cytosolic protein was subjected to SDS-PAGE immunoblot analysis for phosphorylated-ERK, total ERK (P-ERK and T-ERK; Santa Cruz, Calif.). […]\n(§2) Statistics—Data are expressed as the mean±SEM. Curve fitting was accomplished in the program Kaleidagraph (Synergy Software, Reading, Pa.). […] For analysis of phosphorylated proteins, levels were quantified using Bio-Rad QuantifyOne and volumes of phosphorylated proteins were divided by the levels of non-phosphorylated proteins to calculate fold activation. Stimulation of protein activity was expressed as fold increase over vehicle-treated control. The means and S.E.M. were calculated for each treatment. […]"}, "[5]": {"tested_on": "sympathochromaffin cells", "conditions": "in vitro, cited from earlier work"}, "[6]": {"tested_on": "WT and Chga knockout (KO) mice", "assay": "Response to PE or SNP and baroreflex sensitivity in unconscious mice", "type": "in vivo", "conditions": "KO mice, CST 40 μg/g bw iv", "protocol": "Unconscious mice. Surgical procedures for hemodynamic measurements: Hemodynamic evaluation in both WT and KO mice was performed under general anesthesia [ketamine (100 mg/kg) and xylazine (2.5 mg/kg)] while connected to a ventilator. LV pressure was monitored by Millar micromanometer catheter of size 1.4 French (0.46 mm; Millar Instruments, Houston, Tex.); it was inserted into the LV where phasic and mean pressure was continuously monitored (Gould, Cleveland, Ohio). A venous catheter (MicroRenathane tube MRE-033; Braintree Laboratories, Braintree, Mass.) is implanted on right femoral vein for injection of peptide and other reagents. All physiologic signals were acquired by WINDAQ (Dataq Instruments, Akron, Ohio) and analyzed by BP-Analysis software (developed for own laboratory).\nAssessment of baroreflex sensitivity (BRS): BRS (in milliseconds per mmHg) was assessed by both high-pressure [phenylephrine (PE) bolus] and low-pressure [sodium nitroprusside (SNP) bolus] stimuli in unconscious mice. Although conscious animals provide optimal physiological data, a host of undesirable signals are triggered by physical activities, and sleep cycle alterations in behavioral state. Therefore, we have chosen to conduct the experiments in unconscious mice to avoid some of the pitfalls encountered in awake animals. The absolute changes of HR in response to changes in SBP induced by PE or SNP were subjected to linear regression analysis to determine BRS. To test the effect of CST on BRS in KO mice, CST was injected (40 μg/g bw iv) 30 min before the injection of PE or SNP through the catheter implanted into the femoral vein.\nBRS to high-pressure stimulus. High pressure BRS was evaluated by recording diminution of HR in response to PE-induced hypertension. Changes in SBP and HR were recorded continuously for 0.5 min after a bolus injection of PE (0.005 μg/g bw iv). This dose was selected from a preliminary dose-response study (0.001-0.05 μg/g bw iv).\nBRS to low-pressure stimulus. This was evaluated by recording increments in HR in response to SNP-induced fall in BP. Changes in SBP and HR were recorded continuously for 0.5 min after a bolus injection of SNP (0.05 μg/g bw iv). This dose was selected from a preliminary dose-response study (0.01-0.1 μg/g bw iv)."}, "[7]": {"tested_on": "AKT Ser473", "assay": "Immunoblot of phosphorylated Akt in WT-CST perfused hearts", "set-up": "species or system rat", "conditions": "110 nM", "protocol": "as §1, §2"}, "[8]": {"tested_on": "ECs", "assay": "In-vitro angiogenic effects on ECs (migration, proliferation, matrigel assay)", "type": "cell-based"}, "[9]": {"tested_on": "ERK1/2", "assay": "Immunoblot of phosphorylated ERK1/2 in WT-CST perfused hearts", "set-up": "species or system rat", "conditions": "110 nM", "protocol": "as §1, §2"}}, "note": "Read-outs that look alike come from different tables or passages of the source. No end group written: not given here.", "data": [{"sequence": "SSMKLSFRARAYGFRGPGPQL [WT-CST, catestatin]", "values": [{"measurement": "ET-1 induced positive inotropism", "setting": "[1]; ET-1 1 nM, WT-CST 33 nM, P370L-CST 110 nM, G364S-CST 200 nM", "value": "blocked"}, {"measurement": "Effect on LVP and +(LVdP/dT)max", "setting": "[1]; higher doses (10 nM)", "value": "decreased"}, {"measurement": "High blood pressure in CgA null mice", "setting": "[2]", "value": "lowers the high blood pressure in CgA null mice to normal levels"}, {"measurement": "Peak blood glucose level", "setting": "[3]; HFD fed insulin resistant mice, 40 μg/gm IP twice daily 7 days", "value": "reduced"}, {"measurement": "Blood glucose level", "setting": "[3]; WT and CgA-KO mice", "value": "raised"}, {"measurement": "Reduction of blood glucose level (glucose tolerance tests)", "setting": "[3]; insulin-resistant HFD mice", "value": "15-20%"}, {"measurement": "Phosphorylation of GSK-3β at Ser9", "setting": "[4]", "value": "inhibited"}, {"measurement": "Rank order of potency, inhibition of catecholamine secretion", "setting": "[5]; listed as wild-type (WT)", "value": "Pro370Leu>wild-type (WT)>Gly364Ser>Arg374Gln"}, {"measurement": "Rank order of potency, inhibition of catecholamine secretion", "setting": "[5]; listed as wildtype (WT)", "value": "Pro370Leu>wildtype (WT)>Gly364Ser>Arg374Gln"}, {"measurement": "Dampened baroreflex slope", "setting": "[6]", "value": "restored"}, {"measurement": "Phosphorylation of AKT at Ser473", "setting": "[7]", "value": "inhibited"}, {"measurement": "Concentration of maximal function", "setting": "[8]", "value": 1, "unit": "nM"}, {"measurement": "Direct effects on ECs", "setting": "[8]", "value": "exerts several direct effects on ECs including EC migration and proliferation"}, {"measurement": "MAPK signaling pathway in ECs", "setting": "[8]", "value": "induced activation of MAPK signaling pathway"}, {"measurement": "Angiogenic effects at higher concentration", "setting": "[8]; 100 nM, EC migration, proliferation, in-vitro matrigel assay", "value": "angiogenic effects were still observed"}, {"measurement": "Phosphorylation of ERK1/2", "setting": "[9]", "value": "inhibited"}]}]}
